Source: patent US20200289482A1, “CYSTIC FIBROSIS TRANSMEMBRANE CONDUCTANCE REGULATOR MODULATORS FOR TREATING AUTOSOMAL DOMINANT POLYCYSTIC KIDNEY DISEASE” (The Johns Hopkins University, priority 2017, published 2020)

Key:
PN cells = assay: BrdU cell proliferation assay; format: cell-based, mouse; conditions: 1 and 10 μM vs DMSO-treated cells
Description: FIG. 3A, FIG. 3B, FIG. 3C, and FIG. 3D show cell proliferation is reduced by VX-809. (FIG. 3A-FIG. 3B) Proliferation in kidneys of Pkd1^fl/fl; Pax8^rtTA; TetO-cre mice. Representative images of Ki67 (a cellular marker for proliferation) staining of PN21 kidney sections from DMSO- and VX-809-treated mice. Arrows indicate Ki67-positive cells. Pictures were acquired with a Zeiss microscope equipped with 20× objective. (FIG. 3C) Summary data for Ki67-positive cells. Columns represent averages±standard errors of DMSO (vehicle)-treated (n=3) and VX-809-treated (n=3) mice. Statistical analysis was performed using a two-tailed Student's t test. (FIG. 3D) Proliferation in PN cells. PN cells were treated with VX-809 or DMSO). The bromodeoxyuridine (BrdU) concentration in the cells was measured by using a BrdU cell proliferation assay kit (Millipore Sigma #2750) according to the manufacturer's protocol. Columns represent averages±SEs of the OD of BrdU at 450/550 […]. Data were analyzed using Student's t-test, with n=5-7. Methods were described previously (62). […]; **P<0.01;
A hallmark of the cysts in ADPKD is an increase in proliferation in response to cAMP (23). Therefore, it was determined whether VX-809 would affect proliferation.

[1] = system: cAMP in PC1 conditional knockout mouse kidneys; assay: cAMP levels in mouse kidney tissue; format: in vivo; conditions: kidney samples from mice of FIG. 1 (VX-809 30 mg/kg)
Protocol: FIG. 4A, FIG. 4B, FIG. 4C, FIG. 4D, and FIG. 4E show (FIG. 4A-FIG. 4B) cAMP levels are reduced by VX-809. (FIG. 4A) cAMP levels in mouse tissue were reduced by VX-809. The kidney samples (n=6) analyzed were taken from those depicted in FIG. 1. (FIG. 4B) Confluent PN and PH cells were treated with VX-809 (10 μM) or DMSO for 16 h and then treated with forskolin (100 μM) for 30 min before the cells were harvested for the assay. Columns represent means±SEM. Statistical analysis was performed using a two-tailed Student's t-test. Each set of data is from three individual wells; Note that resting cAMP is greater in PN vs PH cells as previously shown (25). Also note that forskolin caused a large increase in cAMP. […] The data were analyzed by non-parametric t-test. […]
It has been shown previously in both animal and cell culture models of ADPKD that cells lacking functional PC1 have elevated cAMP levels when compared to normal (24). To assess the effect of CFTR correctors, cAMP activity was measured in PC1 conditional knockout mouse kidneys and in PN cells that were either left untreated or treated with VX-809. […]
Confluent cells were treated with VX-809 (10 μM) or DMSO for 16 h before being harvested for assay. Cyclic AMP levels were measured with a direct cAMP Enzyme Immunoassay Kit (Sigma, # CA200) according to the manufacturer's protocol. The results are expressed as pmole/ml. […]

cAMP in PN cells = assay: Cyclic AMP enzyme immunoassay in cells; format: cell-based, mouse
Protocol: FIG. 4A, FIG. 4B, FIG. 4C, FIG. 4D, and FIG. 4E show (FIG. 4A-FIG. 4B) cAMP levels are reduced by VX-809. (FIG. 4A) cAMP levels in mouse tissue were reduced by VX-809. The kidney samples (n=6) analyzed were taken from those depicted in FIG. 1. (FIG. 4B) Confluent PN and PH cells were treated with VX-809 (10 μM) or DMSO for 16 h and then treated with forskolin (100 μM) for 30 min before the cells were harvested for the assay. Columns represent means±SEM. Statistical analysis was performed using a two-tailed Student's t-test. Each set of data is from three individual wells; Note that resting cAMP is greater in PN vs PH cells as previously shown (25). Also note that forskolin caused a large increase in cAMP. A smaller increase occurred with IBMX. However, the increase induced by forskolin alone was similar to that by IBMX plus forskolin. […] (FIG. 4C, FIG. 4D, and FIG. 4E) Adenylyl cyclase expression. (FIG. 4C) Western blot showing the expression of adenylyl cyclase (AC) 6 and AC3 in treated and control PN cells. (FIG. 4D-FIG. 4E) Columns represent means±SEM of the AC3 and AC6 expression. The data were analyzed by non-parametric t-test. The experiment was repeated four times. For all graphs, *P<0.05, **P<0.01, and ***P<0.001;
It has been shown previously in both animal and cell culture models of ADPKD that cells lacking functional PC1 have elevated cAMP levels when compared to normal (24). To assess the effect of CFTR correctors, cAMP activity was measured in PC1 conditional knockout mouse kidneys and in PN cells that were either left untreated or treated with VX-809. […] Cells were treated with forskolin, which increased cAMP levels drastically (FIG. 4B). […] Treating PN cells with forskolin or IBMX (FIG. 4B) increased the cAMP activity by ˜10-fold.
Confluent cells were treated with VX-809 (10 μM) or DMSO for 16 h before being harvested for assay. Cyclic AMP levels were measured with a direct cAMP Enzyme Immunoassay Kit (Sigma, # CA200) according to the manufacturer's protocol. The results are expressed as pmole/ml. Statistical analysis was performed using a two-tailed Student's t-test.

GADD153 = assay: Immunostaining for GADD153 in mouse kidney sections; format: in vivo; conditions: PN21 mice, VX-809 vs DMSO
Description: FIG. 12A, FIG. 12B, and FIG. 12C show GADD153 expression in kidneys of Pkd1^fl/fl; Pax8^rtTA; TetO-cre mice. Immunoflourescence images representing the GADD expression (green) in DMSO (FIG. 12A) or VX-809 (FIG. 12B) treated PN21 Pkd1^fl/fl in mouse. Columns (FIG. 12C) represent % area of GADD immunopositive (green) cells in DMSO or VX-809 treated PN21 Pkd1^fl/fl in mouse kidney sections. Data are expressed as mean 1+1 SEM of DMSO (vehicle)-treated (n=4) and VX-809-treated (n=4) mice. Statistical analysis was performed using a 2-tailed Student t-test. DMSO, dimethyl sulfoxide. Kidneys were fixed in 4% paraformaldehyde as described (62). Used here was the GADD153 antibody (Sc-7351), goat antirabbit (A21429, AlexaFluor 555, 1:1,000; Life Technologies, Carlsbad, Calif.) and DAPI (H-1200; Vector Laboratories, Burlingame, Calif.). […] Cells positive for GADD153 and the total number of cells were measured with ImageJ. The results are expressed as percentages;
Given that VX-809 alters an ensemble of Hsps, it was evaluated whether VX-809 alters proteins associated with ER stress. To address this question, the levels of three ER stress-associated proteins were measured, 78-kDa glucose-regulated protein (GRP78), ER oxidoreductin 1 (Ero1) and DNA damage-inducible protein 3 (GADD153), also known as C/EBP homologous protein (CHOP) (37). […]

PC2 = assay: Confocal microscopy localization of PC2; format: cell-based; conditions: VX-809 treated vs control cells; ER, Golgi and PM markers
Description: FIG. 17A and FIG. 17B show images of confocal microscopy localization studies of PC2 and localization markers in control and treated cells (FIG. 17A) and graphs showing Pearson's correlation coefficient for PC2 and localization markers in control and VX-809 treated cells (FIG. 17B).
(§1) The localization of PC2 and CFTR in control cells was compared to the localization of PC2 and CFTR localization in VX-809 treated cells.

CFTR = CFTR (Mus musculus, UniProt P26361); assay: Confocal microscopy localization of CFTR; format: cell-based; parameters: endogenous in cells; conditions: VX-809 treated vs control cells; ER, Golgi and PM markers
CFTR, sequence (P26361 whole entry): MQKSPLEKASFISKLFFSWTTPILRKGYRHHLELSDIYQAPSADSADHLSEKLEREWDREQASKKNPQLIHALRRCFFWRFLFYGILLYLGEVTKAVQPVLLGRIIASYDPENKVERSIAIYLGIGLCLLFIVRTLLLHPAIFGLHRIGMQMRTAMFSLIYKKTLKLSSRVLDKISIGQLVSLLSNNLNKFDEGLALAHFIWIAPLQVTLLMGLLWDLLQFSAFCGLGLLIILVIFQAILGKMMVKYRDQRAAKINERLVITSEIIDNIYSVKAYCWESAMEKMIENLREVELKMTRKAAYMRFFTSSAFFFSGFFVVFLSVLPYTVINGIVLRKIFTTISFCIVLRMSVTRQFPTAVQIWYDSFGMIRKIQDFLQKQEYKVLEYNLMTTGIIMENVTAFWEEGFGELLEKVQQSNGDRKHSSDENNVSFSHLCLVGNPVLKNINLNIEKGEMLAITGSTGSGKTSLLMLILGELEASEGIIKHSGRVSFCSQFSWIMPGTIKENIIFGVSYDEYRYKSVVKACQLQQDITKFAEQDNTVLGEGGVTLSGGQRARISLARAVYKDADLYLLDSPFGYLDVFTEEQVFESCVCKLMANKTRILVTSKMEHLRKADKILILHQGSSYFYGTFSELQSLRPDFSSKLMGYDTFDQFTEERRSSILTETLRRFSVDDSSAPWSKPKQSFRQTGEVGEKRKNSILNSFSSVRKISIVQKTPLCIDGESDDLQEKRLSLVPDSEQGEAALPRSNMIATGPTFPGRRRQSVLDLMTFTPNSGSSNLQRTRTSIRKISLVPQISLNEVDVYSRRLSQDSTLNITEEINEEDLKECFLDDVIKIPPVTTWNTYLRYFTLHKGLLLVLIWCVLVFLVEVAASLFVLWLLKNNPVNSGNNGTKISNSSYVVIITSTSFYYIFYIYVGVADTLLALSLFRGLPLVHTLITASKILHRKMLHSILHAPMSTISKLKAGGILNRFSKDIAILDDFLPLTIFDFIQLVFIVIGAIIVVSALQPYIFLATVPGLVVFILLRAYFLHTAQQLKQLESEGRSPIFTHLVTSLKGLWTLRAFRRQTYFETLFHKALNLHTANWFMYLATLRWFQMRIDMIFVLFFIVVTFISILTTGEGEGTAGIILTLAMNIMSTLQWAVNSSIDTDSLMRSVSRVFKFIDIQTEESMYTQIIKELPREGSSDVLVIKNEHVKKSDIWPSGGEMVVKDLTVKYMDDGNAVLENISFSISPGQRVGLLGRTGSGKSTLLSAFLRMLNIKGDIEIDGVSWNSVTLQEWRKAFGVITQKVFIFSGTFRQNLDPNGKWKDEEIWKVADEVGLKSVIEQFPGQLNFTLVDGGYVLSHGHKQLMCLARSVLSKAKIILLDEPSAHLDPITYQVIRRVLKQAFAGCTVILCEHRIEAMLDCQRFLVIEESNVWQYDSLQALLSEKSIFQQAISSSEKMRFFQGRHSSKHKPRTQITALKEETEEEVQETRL
Description: FIG. 18A and FIG. 18B show images of confocal microscopy localization studies of CFTR and localization markers in control and treated cells (FIG. 18A) and graphs showing Pearson's correlation coefficient for CFTR and localization markers in control and VX-809 treated cells (FIG. 18B).
as §1

lumacaftor [VX-809]
cell proliferation (BrdU) (PN cells): significantly inhibit cell proliferation | cAMP levels in mouse kidneys [1]: significantly decreased the cAMP levels | forskolin-induced increase in cAMP (cAMP in PN cells; VX-809 10 μM 16 h, then forskolin 100 μM 30 min): reduced the forskolin-induced increase in cAMP | resting cAMP levels in PN cells (cAMP in PN cells; VX-809 10 μM, 16 h vs untreated PN cells): significantly decreased the cAMP levels | forskolin- or IBMX-induced increases in adenylyl cyclase activity (cAMP in PN cells; forskolin in combination with IBMX, data bars 5 and 9 FIG. 4B): did not affect the forskolin- or IBMX-induced increases in adenylyl cyclase activity | GADD153 immunostaining in kidneys (GADD153): strong reduction | localization of PC2 (PC2): statistically significant move of PC2 from the ER to Golgi | localization of CFTR (CFTR): statistically significant move of CFTR from the ER to Basolateral and Apical Membrane
